Tests used:
Human GPR120 short form = biological target: T1, Human GPR120 short form (Homo sapiens, UniProt Q5NUL3); test: Human GPR120 in Calcium Flux Assay, Procedure Calcium B (4200 cells/well); assay type: cell-based
T1 construct: expressed in transfected cells
T1 sequence (Q5NUL3 1-361): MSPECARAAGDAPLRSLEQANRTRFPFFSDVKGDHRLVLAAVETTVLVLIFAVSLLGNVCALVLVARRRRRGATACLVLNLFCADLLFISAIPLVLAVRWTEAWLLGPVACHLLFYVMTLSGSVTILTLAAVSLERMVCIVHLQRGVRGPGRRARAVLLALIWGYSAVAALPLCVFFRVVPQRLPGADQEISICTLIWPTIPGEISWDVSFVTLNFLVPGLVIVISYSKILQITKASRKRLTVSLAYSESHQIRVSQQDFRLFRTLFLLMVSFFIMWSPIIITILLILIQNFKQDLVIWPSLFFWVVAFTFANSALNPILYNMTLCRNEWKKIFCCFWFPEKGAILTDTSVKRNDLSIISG
From the text: This in vitro assay serves to assess test compound agonist activity against the short splice variant (SVS with Accession number NM_001195755.1 confirmed by sequencing data) of the GPR120 receptor. The Human Short splice variant #2 (NM_001195755.1) is missing an in-frame coding exon compared to variant 1 (the Human Long splice variant NM_181745.3), resulting in a shorter isoform (GPR120-S) lacking a 16 aa protein segment compared to isoform GPR120-L. The assay platform utilizes HEK-293 cells stably transfected to express the Human GPR120 short form. These cells are first loaded with the Ca^+2 sensitive dye, Fluo-4 NW. Upon stimulation, intracellular released Ca^+2 can bind to the dye and alter its fluorescence intensity. This increase in fluorescence signal, and thus the flux in intracellular [Ca^+2], is detected and quantitated by fluorescence imaging using a FLIPR reader. The effect of the agonist is measured as a function of concentration and used to calculate an EC50 based upon a response curve.
In this procedure 4200 cells/well were employed.
A Human GPR120 clone (Genbank accession number NM_001195755.1) was placed into the pcDNA3.1 mammalian expression vector carrying the neomycin resistance gene. A stable mammalian cell was generated by placing the above clone into a HEK293 background. Clonal cells responding to long chain fatty acids had expression levels of GPR120 confirmed by RT-qPCR. Human HEK-GPR120 cells were cultured in Dulbecco's Modified Eagle's Medium (DMEM)/F12 medium supplemented with 10% fetal bovine serum (FBS), 1% L-Glutamine and 1% penicillin/streptomycin and 0.5 mg/ml G-418. Cells were split 2 times a week to keep the cells in the log-phase growth.
In preparation for the assay, HEK cells stably transfected with Human GPR120 (2.5K cells per well in 25 uL growth medium) were seeded into 384-well plates and then incubated overnight (37° C., 5% CO2). The next day, the media was changed to 20 μl assay buffer and the cell starved for 1 h at 37° C. The dye loading solution (2× dye) was prepared using 10 ml assay buffer, 100 μl of 250 mM probenecid, 1 bottle of Component A, and 20 μl of dye in DMSO. Twenty μl of the 2× dye loading buffer was then added to each well. The plates were incubated at 37° C. for 30 min, then at room temperature for an additional 15 minutes, before performing the assay on FLIPR.
Test compounds were prepared in assay buffer (2 μl of test compound+198 μl assay buffer, final DMSO in assay plate is 0.2%) at the desired concentration, more particularly at 100 μM, 50 μM, 25 μM, 12.5 μM, 6.25 μM, 3.125 μM, 1.562 μM, 0.781 μM, 0.391 μM, 0.195 μM, 0.098 μM, 0.049 μM, 0.024 μM and 0.012 μM.
The assay was performed on a FLIPR plate reader using the following parameters. Baseline was read for 10 seconds at 1 sec intervals. The program was set to transfer 10 μL of ligand from compound plate to cell plate after baseline reading. Aspiration was executed at: 10 μl/sec speed, 4.6 μl height; Dispensing was executed at: 30 μl/sec speed, 45 μl height. After compound addition, each well was read for 300 sec, with measurements collected at 1 sec intervals.
The kinetic data from the FLIPR was based upon a 5 minute window for data collection. The fluorescence of each sample well was used for individual calculations of a normalized RFU value, which was defined as maximum response minus the minimum response. The normalized fluorescence reading (RFU) was calculated as follows: RFU=Fmax−Fmin
(§1) The data were fitted to a sigmoidal dose-response curve with a variable Hill slope (<2) using nonlinear regression with GraphPad Prism 5.0 to calculate the EC50 values. The Fitting Equation was: Y=Bottom+(Top−Bottom)/(1+10^((LogEC50−X)*HillSlope)), where X is the log of the concentration and Y is the response.

[1] = biological target: T2, short form of the GPR120 receptor (Homo sapiens, UniProt Q5NUL3); test: Human GPR120 DiscoveRx PathHunter Beta-Arrestin Assay, Procedure β-arrestin B (5000 cells/well); assay type: cell-based
T2 construct: host or cells: PathHunter CHO-K1 GPR120S β-Arrestin Cell Line
T2 sequence (Q5NUL3 1-361): T1 sequence (Q5NUL3 1-361)
From the text: (§2) The binding of an agonist (medium/long chain fatty acids or small molecule agonists) to the G-protein-coupled receptor GPR120 activates phospholipase C, leading to release of intracellular Ca^+2 through the generation of inositol 1,4,5-trisphosphate (InsP3 or IP3). GPR120 activation can also trigger intracellular signaling via recruitment of β-Arrestin. In the present method, agonist-induced activation of the human GPR120 receptor is monitored through the use of PathHunter CHO-K1 GPR120 β-Arrestin Cell Line engineered by DiscoveRx, as detailed below. The cell lines are designed to co-express both the ProLink/Enzyme Donor (PK)-tagged GPCR and the Enzyme Activator (EA)-tagged β-Arrestin fusion proteins. Upon GPR120 receptor stimulation/activation, the EA-tagged β-Arrestin portion is translocated to the tagged receptor, where the two enzyme fragments are brought within close proximity. Under these conditions, these fragments can interact and form an active Beta-gal enzyme complex through Enzyme Fragment Complementation (EFC). This active Beta-gal complex can enzymatically hydrolyse the substrate to produce a detectable light signal; therefore, activation as a function of agonist concentration can be expressed as an EC50 value to determine relative compound activities. This in vitro assay therefore serves to assess compound agonist activity of the GPR120.
In Procedure β-arrestin B the cells used were PathHunter CHO-K1 GPR120S β-Arrestin Cell Line, expressing the short form of the GPR120 receptor (Accession #NM_181745), with 5000 cells/well.
(§3) The selected CHO-K1 GPR120 β-Arrestin cells were cultured in Ham's F12 media supplemented with 10% fetal bovine serum (FBS), 1% Glutamine, 1×p/s, 800 μg/ml G418 and 300 μg/ml Hygromycin B (for selection). Cell stocks were maintained and grown in a sub-confluent state using standard cell culture procedures. The day before the experiment, the cells were harvested with non-enzymatic cell dissociation buffer and re-suspended in complete growth media at the desired concentration. A Corning 384-plate was then seeded with the proper number of cells in a volume of 25 μL, per well. The seeded plates were incubated overnight at 37° C.
(§4) On the day of the experiment, the Assay Buffer containing (a) HBSS with Ca^++ and Mg^++, (b) 20 mM HEPES, and (c) 0.1% BSA stabilizer (pH 7.4) was prepared. The growth medium was gently removed from the cell plates and 20 μL of Assay Buffer added to each well. The plate was then incubated at 37° C. for 60 mins. Test compounds were serially diluted in Assay Buffer to desired concentrations (more particularly, to one or more of the following μM concentrations: 25 μM, 12.5 μM, 6.25 μM, 3.125 μM, 1.562 μM, 0.781 μM, 0.391 μM, 0.195 μM, 0.098 μM, 0.049 μM, 0.024 μM, 0.012 μM). Five μl of compound dilution was then added to each well and the plate incubated at 37° C. for 90 mins. The detection reagents were prepared according to the manufacture's instruction. Twelve μL of the detection reagents were added to each well and the plate incubated at room temperature for 60 mins.
(§5) The plates were read on an EnVision instrument, using Protocol name: Luminescence, Plate type: 384 Costar, Measurement height: 3 mm, Measurement time: 1 s, Aperture: 384 Plate aperture. The % activity relative to the positive control was calculated using the following equation:
as §1, with “% Activity values” for “data”, “were plotted versus the concentration of test compound and” for “were”, “a” for “a variable”, “slope=1 (fixed value)” for “slope (<2)”

C57bl/6J Mice = test: C57bl6 mouse OGTT; assay type: in vivo
Description: Male, C57bl/6J Mice were ordered in at 8 weeks of age from Jackson Labs. Individual mice weighed anywhere in the range of 25-30 grams on study day. The mice were fasted, with removal of food occurring at 7 am on the morning of the study. Animals were moved into the room at 10:00 am, to give them time to acclimate. Glucose (insulin syringes) was drawn up either the night before or the morning of the study. Glucose was dosed (IP) at 1.5 g/kg at 7.5 ml/kg (20% glucose straight TEKNOVA, 250 ml sterile bottle w/catalogue number G0525). Test compounds were kept spinning and were only drawn into the syringes prior to study commencement. Animals were bled via tail snip to determine basal glucose levels prior to dosing of treatments. An Ascensia BREEZE Blood Glucose Monitoring System by Bayer (using unique 10-test disks) was used for determining glucose levels. The bleeds started at approximately 12:45 pm and dosing started, at 1-minute intervals, immediately after. All groups were dosed 30 minutes prior to glucose administration at a dose volume of 10 ml/kg (the dose volume was calculated separately for each individual animal). Thirty minutes after the first dose animals were bled again for a second baseline, or T=0, and immediately dosed with glucose via an i.p. injection. The exact dose volume for glucose was also calculated separately for each individual animal. Glucose measurements were taken at −30 min prior to compound dose, at t=0 (immediately prior to glucose dose), and at 15, 30, 45, 60, 90 min post glucose dose.
Glucose values were entered into an Excel sheet and graphed in GraphPad Prism. The following were calculated from Prism: Change from −30 to 0 BSLN Glucose, Raw Glucose AUC −30 to 90 min, Delta Glucose AUC −30 to 90 min, Raw Glucose AUC 0 to 90 min, Delta Glucose AUC 0 to 90 min.
The assay design is the same as that described above for the C57bl6 mouse IPGTT. The difference is that glucose was dosed PO at 3 g/kg, 7.5 ml/kg of 40% glucose.

[2] = biological target: T3, long form of human GPR120 (Homo sapiens, UniProt Q5NUL3); test: Human GPR120 DiscoveRx PathHunter Beta-Arrestin Assay, Procedure β-arrestin A (3000 cells per well); assay type: cell-based; conditions: read-out: GPR120 B-arrestin A EC50
T3 construct: host or cells: PathHunter CHO-K1 GPR120 β-Arrestin Cell Line
T3 sequence (Q5NUL3 1-377 isoform Q5NUL3-1): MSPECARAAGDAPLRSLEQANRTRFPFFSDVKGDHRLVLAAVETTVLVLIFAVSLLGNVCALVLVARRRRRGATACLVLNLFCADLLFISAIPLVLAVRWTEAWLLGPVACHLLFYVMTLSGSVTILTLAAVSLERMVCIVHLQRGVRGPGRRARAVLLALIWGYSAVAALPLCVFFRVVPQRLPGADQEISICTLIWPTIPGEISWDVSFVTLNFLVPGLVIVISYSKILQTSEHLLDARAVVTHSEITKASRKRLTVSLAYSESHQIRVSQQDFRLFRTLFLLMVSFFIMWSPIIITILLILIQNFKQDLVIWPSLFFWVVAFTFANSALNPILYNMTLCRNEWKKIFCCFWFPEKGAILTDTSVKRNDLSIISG
From the text: as §2
In Procedure β-arrestin A, the cell used were PathHunter CHO-K1 GPR120 β-Arrestin Cell Line, expressing the long form of human GPR120 (Genbank accession number NM_181745), with 3000 cells per well.
as §3, §4, §5
as §1, with “% Activity values” for “data”, “were plotted versus the concentration of test compound and” for “were”, “a” for “a variable”, “slope=1 (fixed value)” for “slope (<2)”

Compound | EC50 (Human GPR120 short form) | EC50 [1] | Dose Responses C57 OGTT (C57bl/6J Mice; 3 mg/kg) | Dose Responses C57 OGTT (C57bl/6J Mice; 10 mg/kg) | EC50 [2]
Cc1c(CCC(=O)O)ccc(OCc2cc(Cl)cc3sc(CC(C)C)nc23)c1C [Compound 110, 3-(4-{[6-Chloro-2-(2-methylpropyl)-1,3-benzothiazol-4-yl]methoxy}-2,3-dimethylphenyl)propanoic acid] | 949 nM | 3310 nM | – | – | –
Cc1c(CCC(=O)O)ccc(OCc2cc(F)cc3sc(C(C)C)nc23)c1C [Compound 111, 3-(4-{[6-Fluoro-2-(1-methylethyl)-1,3-benzothiazol-4-yl]methoxy}-2,3-dimethylphenyl)propanoic acid] | 107 nM | 299 nM | – | – | –
CCCc1cc2cc(F)cc(COc3ccc(CCC(=O)O)c(C)c3C)c2o1 [Compound 13, 3-{4-[(5-Fluoro-2-propyl-1-benzofuran-7-yl)methoxy]-2,3-dimethylphenyl}propanoic acid] | – | – | −16% | −16% | 302 nM
Cc1c(CCC(=O)O)ccc(OCc2cc(F)cc3sc(C(C)(C)C)nc23)c1C [Compound 107, 3-{4-[(2-tert-butyl-6-fluoro-1,3-benzothiazol-4-yl)methoxy]-2,3-dimethylphenyl}propanoic acid] | 1010 nM | 3920 nM | – | – | –
Cc1cc2cc(Cl)c(CCCS(C)(=O)=O)c(COc3ccc(CCC(=O)O)c(C)c3C)c2o1 [Compound 108, 3-[4-({5-Chloro-2-methyl-6-[3-(methylsulfonyl)propyl]-1-benzofuran-7-yl}methoxy)-2,3-dimethylphenyl]propanoic acid] | 2740 nM | – | – | – | –
Cc1c(CCC(=O)O)ccc(OCc2cc(Cl)cc3sc(C(C)C)nc23)c1C [Compound 106, 3-(4-{[6-chloro-2-(1-methylethyl)-1,3-benzothiazol-4-yl]methoxy}-2,3-dimethylphenyl)propanoic acid] | 184 nM | 882 nM | – | – | –
CCc1nc2c(COc3ccc(CCC(=O)O)c(C)c3C)cc(Cl)cc2s1 [Compound 109, 3-{4-[(6-Chloro-2-ethyl-1,3-benzothiazol-4-yl)methoxy]-2,3-dimethylphenyl}propanoic acid] | 38 nM | 191 nM | – | – | –

Reference: patent US9562053B2, “Benzo-fused heterocyclic derivatives useful as agonists of GPR120” (Janssen Pharmaceutica NV, priority 2013, dated 2017)
